Assay results: patent US20080241289A1, “PREPARATION AND UTILITY OF NON-NUCLEOSIDE REVERSE TRANSCRIPTASE INHIBITORS” (AUSPEX PHARMACEUTICALS, INC., priority 2007, published 2008)

System: BN Rats
Experiment: Incidence of skin rash in BN rats, time course study
Format: in vivo
Protocol: The protocol was modeled after that published previously (Shenton et al, Chem. Res. Toxicol. 2005, 18, 1799-1813, and Popovic et al, Chem. Res. Toxicol. 2006, 19, 1205-1214). After a 1-week acclimation period, the rats (n=3 per group) were either treated with the suspension vehicle (1% Tween® 20), or Nevirapine (NVP) (150 mg/kg/day) in suspension, or compounds of Formula I (dNVP) (150 mg/kg) in suspension. Animals were monitored for development of skin rash, and body weight. At the endpoint of the experiment, rats were humanely euthanized using carbon dioxide and exsanguinations.
At day 18, all animals in all three groups were euthanized as the experiment was deemed to have reached its ethical endpoint where no additional dosing was considered appropriate.

## Cc1ccnc2c1NC(=O)c1cccnc1N2C1CC1 [NVP, 11-Cyclopropyl-5,11-dihydro-4-methyl-6H-dipyrido[3,2,-b:2′,3′-e][1,4]-diazepin-2-one]
150 mg/kg/day in suspension, at approximately the two-week point
  other visible signs (ears, eyes, feet, tail): distinctly red ears, edematous eyes, purple feet, and a mottled tail
150 mg/kg/day in suspension, over entire course of the experiment (to day 18)
  behaviour / general health after dosing: inactivity and a lack of responsiveness for about three hours after each dosing
150 mg/kg/day in suspension, under controlled conditions
  overall toxicity, NVP compared with compounds of Formula I: substantially more toxic than compounds of Formula I
n=3 per group, 150 mg/kg/day in suspension (1% Tween 20), observed to day 18
  development of skin lesions (skin rash): all NVP-treated animals displayed lesions, particularly around the dorsal area of the neck
